Target: Serine/threonine-protein kinase B-raf [V600E] (Homo sapiens, UniProt P15056, V600E)
Experiment: BRAF V600E and V600K Enzyme Assay
Text: A competitive displacement assay was configured for B-Raf that monitors the amount of a fluorescently-tagged tracer bound to B-Raf via TR-FRET from an anti-tag Eu-labeled antibody also bound to B-Raf.

Serine/threonine-protein kinase B-raf [V600E], sequence (P15056 2-766 V600E limits assumed): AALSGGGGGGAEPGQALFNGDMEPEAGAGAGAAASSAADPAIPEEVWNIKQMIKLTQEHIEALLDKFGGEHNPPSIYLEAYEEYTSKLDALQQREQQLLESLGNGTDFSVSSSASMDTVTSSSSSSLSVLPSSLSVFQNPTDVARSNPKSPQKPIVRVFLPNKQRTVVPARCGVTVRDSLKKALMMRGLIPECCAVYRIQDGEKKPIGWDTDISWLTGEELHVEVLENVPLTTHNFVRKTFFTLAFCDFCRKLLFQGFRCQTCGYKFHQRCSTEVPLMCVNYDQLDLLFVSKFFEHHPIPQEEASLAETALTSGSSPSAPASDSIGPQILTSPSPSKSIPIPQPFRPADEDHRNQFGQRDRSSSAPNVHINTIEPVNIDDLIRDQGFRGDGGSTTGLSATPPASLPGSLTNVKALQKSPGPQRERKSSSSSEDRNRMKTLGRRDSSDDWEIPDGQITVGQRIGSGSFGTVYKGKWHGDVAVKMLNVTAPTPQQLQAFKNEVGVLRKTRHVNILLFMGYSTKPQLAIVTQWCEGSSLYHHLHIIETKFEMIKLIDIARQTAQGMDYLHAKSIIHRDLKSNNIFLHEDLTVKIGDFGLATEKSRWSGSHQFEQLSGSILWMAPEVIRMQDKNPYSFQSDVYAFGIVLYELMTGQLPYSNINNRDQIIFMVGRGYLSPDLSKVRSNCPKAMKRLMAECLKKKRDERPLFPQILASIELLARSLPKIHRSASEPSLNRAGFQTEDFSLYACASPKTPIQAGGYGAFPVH

| SMILES | IC50 [nM] |
| --- | --- |
| Cc1c(Nc2c(F)cnc(NS(=O)(=O)CC3CC3)c2Cl)ccc2ncn(C)c(=O)c12 [US11414404, Ex. # 47] | 41.7 |
| Cc1c(Nc2c(F)ccc(NS(=O)(=O)CC3CC3)c2Cl)ccc2ncn(C)c(=O)c12 [US11414404, Ex. # 50] | 66.1 |
| Cc1c(Nc2c(F)ccc(NS(=O)(=O)CC(C)C)c2Cl)ccc2ncn(C)c(=O)c12 [US11414404, Ex. # 51] | 63.4 |

From BindingDB's records for patent US11414404 (Array BioPharma Inc., 2022)
